Where a name gives a salt, the structure may show the parent alone.
Tests used:
[1] = system: macrophage antigen presentation to Lewis (LEW/N) rat T-cell hybridoma (Interleukin-2 production); experiment: Regulation of antigen presentation to rat T-cell hybridoma (Interleukin-2 production); assay type: cell-based
Experimental: Using the method of Ku (Cellular Immunology 130,(1990)), and a Lewis (LEW/N) rat T-cell hybridoma reactive with the protein methylated bovine serum albumin (mBSA), the ability of a compound of formula (1) to regulate M.phi. antigen presentation in vitro may be measured. Peritoneal macrophages obtained from LEW/N rats are plated into tissue culture and treated with 100 ug of mBSA and drug. A control is prepared similarly. After a period of 18 hours the cells are washed and incubated with the T-cell hybridoma for an additional 12 hours. Supernatants from these cultures are obtained and measured for content of Interleukin-2, a T-cell derived lymphokine which is roduced by activated T-cells. […] Rat macrophage antigen presentation and the subsequent production of Interleukin-2 are inhibited when rug is administered over a concentration range from 0.1 to 100 uM as illustrated in the following table.

[2] = system: endotoxin lethality in CF1 mice; experiment: Mouse endotoxin lethality model (D-galactosamine/LPS septic shock); assay type: in vivo; conditions: 100 mg/kg i.p., pretreated at t=-1 hr; death observed over 8-72 hours
Experimental: Using the method of Silverstein, (J. Exp. Med. 173, 357 (1991)) a mouse endotoxin lethality model may be used to determine if a compound of formula (1) has the ability to inhibit endotoxin-induced septic shock which is dependent on the production of Tumor Necrosis Factor-a (TNF-α). CF1 mice pretreated at time (t)=-1 hr with drug are challenged with 18 mg of D-glactoseamine and 50 ng of LPS, then observed for death over an 8-72 hour period.

Nc1ncnc2c1ncn2[C@@H]1CC[C@@H](O)C1 [(1R,3R)-TRANS-1(9-ADENYL)CYCLOPENTAN-3-OL HYDROCHLORIDE] was tested, and the “Rat macrophage antigen presentation and subsequent production of Interleukin-2” value ([1]; 0.1 to 100 uM) was “inhibited”, the T-cell activation ([1]; in vitro) was “inhibits T-cell ctivation” and the “protection against endotoxin lethality” value [2] was “protects against endotoxin lethality”.

Reference: US5929079A, “Trans cyclopentanyl azaadenyl analogs useful as immunosuppressants” (Hoechst Marion Roussel, Inc., priority 1997, dated 1999)
